Holding throughout (experiment): relative viability (nuclei count vs DMSO), 5 days (fraction); higher = more cells survive
Compound in the experiment “Venetoclax + OSI-027”: CC1(C)CCC(CN2CCN(c3ccc(C(=O)NS(=O)(=O)c4ccc(NCC5CCOCC5)c([N+](=O)[O-])c4)c(Oc4cnc5[nH]ccc5c4)c3)CC2)=C(c2ccc(Cl)cc2)C1 [Venetoclax] + COc1cccc2cc(-c3nc([C@H]4CC[C@H](C(=O)O)CC4)n4ncnc(N)c34)[nH]c12 [OSI-027] (partner 0.5 µM)
The gist of the method:
(§1)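 Nuclei were stained with Hoechst during a one-step fixation (final 0.05% Triton X-100, 1% formaldehyde, 1 ug/ml Hoechst) carried out 5 days after dosing, then counted on 4× images. The cells, lung cancer lines in 1536-well plates, had been dosed by pin tool the day after seeding with one drug alone or a fixed anchor-drug dose plus five library-drug doses (not always all listed) in √10 steps. Relative viability is the nuclei count in treated wells divided by that in vehicle wells, and each value is the median of duplicate plates.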

Compound in the experiment “Selumetinib + Lapatinib”: Cn1cnc2c(F)c(Nc3ccc(Br)cc3Cl)c(C(=O)NOCCO)cc21 [Selumetinib] + CS(=O)(=O)CCNCc1ccc(-c2ccc3ncnc(Nc4ccc(OCc5cccc(F)c5)c(Cl)c4)c3c2)o1 [Lapatinib] (partner 2 µM)
In a few lines:
as §1

Compound in the experiment “Selumetinib + AZD7762”: Cn1cnc2c(F)c(Nc3ccc(Br)cc3Cl)c(C(=O)NOCCO)cc21 [Selumetinib] + NC(=O)Nc1cc(-c2cccc(F)c2)sc1C(=O)N[C@H]1CCCNC1 [AZD7762] (partner 0.2 µM)
The gist of the method:
as §1

Compound in the experiment “Selumetinib + Luminespib”: Cn1cnc2c(F)c(Nc3ccc(Br)cc3Cl)c(C(=O)NOCCO)cc21 [Selumetinib] + CCNC(=O)c1noc(-c2cc(C(C)C)c(O)cc2O)c1-c1ccc(CN2CCOCC2)cc1 [Luminespib] (partner 0.01 µM)
The gist of the method:
as §1

This passage reports relative viability results from the supplement of paper PMC10307832.

For the cell line ABC-1, the relative viability was found to be 0.569 with Venetoclax + OSI-027 (first compound 0.01 µM); 0.536 with Venetoclax + OSI-027 (first compound 0.03162 µM); 0.444 with Venetoclax + OSI-027 (first compound 0.1 µM); 0.488 with Venetoclax + OSI-027 (first compound 0.3162 µM); 0.442 with Venetoclax + OSI-027 (first compound 1 µM); 1.22 in the experiment with Selumetinib + Lapatinib (first compound 0.02 µM). The relative viability with Selumetinib + Lapatinib (first compound 0.06325 µM) amounted to 1.27; with Selumetinib + Lapatinib (first compound 0.2 µM) it was 0.967; with Selumetinib + Lapatinib (first compound 0.6325 µM), 1.03; with Selumetinib + AZD7762 (first compound 0.02 µM), 0.871; with Selumetinib + AZD7762 (first compound 0.06325 µM), 0.591; with Selumetinib + AZD7762 (first compound 0.2 µM) it was 0.66. Moreover, the relative viability in the experiment with Selumetinib + AZD7762 (first compound 0.6325 µM) was determined as 0.578; with Selumetinib + Luminespib (first compound 0.02 µM) it was 0.581; with Selumetinib + Luminespib (first compound 0.06325 µM), 0.422; with Selumetinib + Luminespib (first compound 0.2 µM) it was 0.607; with Selumetinib + Luminespib (first compound 0.6325 µM), 0.314.

Regarding NCI-H1734, the relative viability with Venetoclax + OSI-027 (first compound 0.01 µM) came to 0.616; with Venetoclax + OSI-027 (first compound 0.03162 µM) it was 0.568; in the experiment with Venetoclax + OSI-027 (first compound 0.1 µM), 0.515; with Venetoclax + OSI-027 (first compound 0.3162 µM) it was 0.57; with Venetoclax + OSI-027 (first compound 1 µM), 0.542; with Selumetinib + Lapatinib (first compound 0.02 µM), 1.12. Also, the relative viability was 1.02 with Selumetinib + Lapatinib (first compound 0.06325 µM); 1.09 in the experiment with Selumetinib + Lapatinib (first compound 0.2 µM); 1.04 with Selumetinib + Lapatinib (first compound 0.6325 µM); 0.512 with Selumetinib + AZD7762 (first compound 0.02 µM); 0.5 with Selumetinib + AZD7762 (first compound 0.06325 µM); 0.495 in the experiment with Selumetinib + AZD7762 (first compound 0.2 µM). Also, the relative viability in the experiment with Selumetinib + AZD7762 (first compound 0.6325 µM) came out at 0.515; with Selumetinib + Luminespib (first compound 0.02 µM), 0.195; with Selumetinib + Luminespib (first compound 0.06325 µM), 0.176; with Selumetinib + Luminespib (first compound 0.2 µM), 0.17; with Selumetinib + Luminespib (first compound 0.6325 µM) it was 0.152.
